Results as given in US5389661A, “Imidazole and 1,2,4-triazole derivatives with angiotensin II antagonist properties” (Warner-Lambert Company, priority 1994, dated 1995).

These molecules were tested against T1, angiotensin II receptor (rat liver membranes) (Rattus norvegicus, UniProt P25095) (assay: RBAT1, Receptor Binding of Angiotensin II: inhibition of tritiated angiotensin II binding to rat liver membranes). Conditions: in vitro.
T1 construct: from tissue; host or cells: rat liver membranes
T1 sequence (P25095 1-359): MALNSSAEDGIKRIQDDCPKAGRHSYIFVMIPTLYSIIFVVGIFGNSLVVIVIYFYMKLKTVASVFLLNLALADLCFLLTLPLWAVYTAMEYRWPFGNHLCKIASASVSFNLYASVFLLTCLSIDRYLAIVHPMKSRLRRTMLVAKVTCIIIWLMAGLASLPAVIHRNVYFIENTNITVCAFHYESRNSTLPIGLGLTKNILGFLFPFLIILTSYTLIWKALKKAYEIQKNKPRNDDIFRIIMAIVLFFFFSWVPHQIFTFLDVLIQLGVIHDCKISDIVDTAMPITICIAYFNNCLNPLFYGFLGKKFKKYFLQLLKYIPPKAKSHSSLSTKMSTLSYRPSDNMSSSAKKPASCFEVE
Procedure: The effectiveness of the compounds of the instant invention is determined by a test (RBAT1) entitled Receptor Binding of Angiotensin II.
Molecule `CCCCc1ncc(C=C2C(=O)N(CCCC)c3ccccc32)n1Cc1ccc(C(=O)OC)cc1Cl` [Example 4K, Methyl 4-[[2-butyl-5-[(1-butyl-1,2-dihydro-2-oxo-3H-indol-3-yliden)methyl]-1H-imidazolyl]methyl]-3-chlorobenzoate] has an IC50 of 110 nM. With `CCCc1ncc(/C=C2/C(=O)N(CC(=O)O)c3ccccc32)n1Cc1ccc(C(=O)O)cc1` [Example 9, (E)-3-[[3-[(4-carboxyphenyl)methyl]-2-propyl-3H-imidazol-4-yl]methylene]-2,3-dihydro-2-oxo-1H-indole-1-acetic acid] the IC50 was 98 nM. `CCCCc1ncc(C=C2C(=O)Nc3ccccc32)n1Cc1ccc(C(=O)O)cc1` [Example 3, 4-[[2-Butyl-5-[(1,12-dihydro-2-oxo-3H-indol-3-ylidene)methyl]-1H-imidazol-1-yl]methyl]benzoic acid] gave an IC50 of 170 nM. In the case of `CCCCc1ncc(C=C2C(=O)N(CC(=O)O)c3ccccc32)n1Cc1ccc(-c2nnn[nH]2)cc1` [Example 7, 3-[[2-butyl-3-[[4-(1H-tetrazol-5-yl)phenyl]methyl]-3H-imidazol-4-yl]methylene]-2,3-dihydro-2-oxo-1H-indole-1-acetic acid], the IC50 is reported as 5.7 nM. For `CCCc1ncc(C=C2C(=O)N(CCC)c3ccccc32)n1Cc1ccc(C(=O)O)cc1` [Example 3I, 4-[[5-[(1,2-dihydro-2-oxo-1-propyl-3H-indol-3-ylidenyl)methyl]-2-propyl-1H-imidazol-1-yl]methyl]benzoic acid], the IC50 was 140 nM. With `CCCCc1ncc(C=C2C(=O)N(CC(=O)O)c3ccccc32)n1Cc1ccc(C(=O)O)cc1` [Example 3C, 3-[[2-Butyl-1-[(4-carboxyphenyl)methyl]-1H-imidazol-5-yl]methylene]-2,3-dihydro-2-oxo-1H-indole-1-acetic acid] the IC50 was 22 nM. Work on `CCCCc1nc(Cl)c(/C=C2/C(=O)Nc3ccccc32)n1Cc1ccc(C(=O)O)cc1` [Example 3A, (E)-4-[[2-Butyl-4-chloro-5-[(1,2-dihydro-2-oxo-3H-indol-3-ylidene)]-1H-imidazol-1-yl]methyl]benzoic acid] yielded an IC50 of 140 nM. With `CCCc1ncc(/C=C2\C(=O)N(CC(=O)OC)c3cccc(C)c32)n1Cc1ccc(C(=O)OC)cc1` [Example 4J, Methyl (Z)-2,3-dihydro-3-[[3-[[4-methoxycarbonylphenyl]methyl]-2-propyl-3H-imidazol-4-yl]methylene]-4-methyl-2-oxo-1H-indole-1-acetate] the IC50 was 686 nM. In the case of `CCCc1ncc(/C=C2\C(=O)N(C(C)C)c3ccccc32)n1Cc1ccc(C(=O)OC)cc1` [Example 2F, Benzoic acid, 4-[[5-[[2,3-dihydro-1-(1-methylethyl)-2-oxo-1H-indol-3-ylidene]methyl]. -2-propyl-1H-imidazol-1-yl]methyl]-, methyl ester, (Z)], the IC50 is reported as 67 nM. With `CCCc1ncc(/C=C2\C(=O)N(C(CCC)C(=O)OCC)c3cccc(C)c32)n1Cc1ccc(C(=O)OC)cc1` (racemic) [Example 4I, Ethyl (Z)-(±)-2,3,dihydro-3-[[3-[[4-(methoxycarbonylphenyl]methyl]-2-propyl-3H-imidazol-4-yl]methylene]-4-methyl-2-oxo-α-propyl-1H-indole-1-acetat] the IC50 was 300 nM. In the case of `CCCCc1ncc(C=C2C(=O)N(CCCC)c3ccccc32)n1Cc1ccc(C(=O)O)cc1Cl` [Example 3H, 4-[[2-butyl-5-[(1-butyl-1,2-dihydro-2-oxo-3H-indol-3-ylidenyl)methyl]-1H-imidazol-1-yl]methyl]-3 chlorobenzoic acid], the IC50 is reported as 52 nM. In the case of `CCCCc1ncc(C=C2C(=O)N(O)c3ccccc32)n1Cc1ccc(C(=O)OC)cc1` [Example 2C], the IC50 is reported as 201 nM. Molecule `CCCc1ncc(/C=C2\C(=O)N(CC(=O)OC)C(=O)c3ccccc32)n1Cc1ccc(C(=O)OC)cc1` [Example 8, 2(1H)-Isoquinolineacetic acid, 3,4-dihydro-4-[[1-[[4-(methoxycarbonyl)phenyl]methyl]-2-propyl-1H-imidazol-5-yl]methylene]-1,3-dioxo-, methyl ester, (Z)] has an IC50 of 47 nM. `CCCCc1ncc(C=C2C(=O)N(CCCC)c3ccccc32)n1Cc1ccc(C(=O)OC)cc1` [Example 4C, Benzoic acid, 4-[[2-butyl-5-[(1-butyl-2,3-dihydro-2-oxo-1H-indol-3-ylidene)methyl]-1H-imidazol-1-yl]methyl]-, methyl ester] showed an IC50 of 358 nM. Work on `CCCCc1ncc(/C=C2/C(=O)N(Cc3ccc(Cl)cc3)c3ccccc32)n1Cc1ccc(C(=O)O)cc1` [Example 4F, Benzoic acid, 4-[[2-butyl-5-[[1-[(4-chlorophenyl)methyl]-2,3-dihydro-2-oxo-1H-indol-3-ylidene]methyl]-1H-imidazol-1-yl]methyl]-, (E)] yielded an IC50 of 256 nM. Work on `CCCc1nc(-n2cccc2)c(/C=C2/C(=O)Nc3ccccc32)n1Cc1ccc(C(=O)O)cc1` [Example 2D, (E)-4-[[5-[(1,2-dihydro-2-oxo-3H-indol-3-ylideny)methyl]-2-propyl-4-(1H-pyrrol-1-yl)-1H-imidazol-1-yl]methyl]benzoic acid] yielded an IC50 of 86 nM. `CCCc1ncc(C=C2C(=O)N(C(=O)NC)c3ccccc32)n1Cc1ccc(C(=O)OC)cc1` [Example 2B, Methyl 4-[[(2-propyl-5-[1,2-dihydro-1-(methylaminocarbonyl)-2-oxo-3H-indol-3-ylidene]methyl]-1H-imidazol-1-yl]methyl benzoate] gave an IC50 of 610 nM. `CCCCc1ncc(C=C2C(=O)N(OCC(=O)OC)c3ccccc32)n1Cc1ccc(C(=O)OC)cc1` [Example 4G] showed an IC50 of 64 nM. `CCCc1ncc(C=C2C(=O)N(C)c3ccccc32)n1Cc1ccc(C(=O)OC)cc1` [Example 1D, Methyl 4-[[2-propyl-5-[(1,2-dihydro-1-methyl-2-oxo-3H-indol-3-ylidene)methyl]-1H-imidazol-1-yl]methyl]benzoate] showed an IC50 of 75 nM. Molecule `CCCc1nc(-n2cccc2)c(/C=C2/C(=O)N(CC(=O)OC)c3ccccc32)n1Cc1ccc(C(=O)OC)cc1` [Example 4B, 1H-Indole-1-acetic acid, 2,3-dihydro-3-[[1-[[4-(methoxycarbonyl)phenyl]methyl]-2-propyl-4-(1H-pyrrol-1-yl)-1H-imidazol-5-yl]methylene]-2-oxo-, methyl ester, (E)] has an IC50 of 95 nM. Molecule `CCCCc1ncc(C=C2C(=O)N(CC(=O)OC)c3ccccc32)n1Cc1ccc(-c2nn[nH]n2)cc1` [Example 6, 1H-Indole-1-acetic acid, 3-[[2-butyl-1-[[4-(1H-tetrazol-5-yl)phenyl]methyl]-1H-imidazol-5yl]methylene]-2,3-dihydro-2-oxo-, methyl ester] has an IC50 of 25 nM. With `CCCCc1ncc(CC2C(=O)Nc3ccccc32)n1Cc1ccc(C(=O)OC)cc1` (racemic) [Example 10, Benzoic acid, 4-[[2-butyl-5-[(2,3-dihydro-2-oxo-1H-indol-3-yl)methyl]-1H-imidazol-1-yl]methyl]-, methyl ester, (±)] the IC50 was 53 nM. `CCCc1ncc(C=C2C(=O)N(CCC)c3ccccc32)n1Cc1ccc(C(=O)OC)cc1` [Example 2G, Methyl 4-[[5-[(1,2-dihydro-2-oxo-1-propyl-3H-indol-3-ylidenyl)methyl]-2-propyl-1H-imidazol-1-yl]methyl]benzoate] was tested, and the IC50 was 746 nM. Work on `CCCc1nc(-n2cccc2)c(/C=C2/C(=O)N(C)c3ccccc32)n1Cc1ccc(C(=O)OC)cc1` [Example 4A, Benzoic acid, 4-[[5-[(2,3-dihydro-1-methyl-2-oxo-1H-indol-3-ylidene)methyl]-2-propyl-4-(1H-pyrrol-1-yl)-1H-imidazol-1-yl]methyl]-, methyl ester, (E)] yielded an IC50 of 640 nM. In the case of `CCCCc1ncc(C=C2C(=O)N(CC(=O)OCC)c3ccccc32)n1Cc1ccc(-c2nnn[nH]2)cc1` [Example 6A, 1H-Indole-1-acetic acid, 3-[[2-butyl-1-[[4-(1H-tetrazol-5-yl)phenyl]methyl]-1H-imidazol-5yl]methylene]-2,3-dihydro-2-oxo-, ethyl ester], the IC50 is reported as 12 nM. `CCCCc1ncc(C=C2C(=O)N(Cc3nn[nH]n3)c3ccccc32)n1Cc1ccc(C(=O)OC)cc1` [Example 5, Benzoic acid, 4-[[2-butyl-5-[[2,3-dihydro-2-oxo-1-(1H-tetrazol-5-ylmethyl)-1H-indol-3-ylidene]methyl]-1H-imidazol-1-yl]methyl]-, methyl ester, (E)] showed an IC50 of 94 nM. `CCCCc1ncc(C=C2C(=O)N(O)c3ccccc32)n1Cc1ccc(C(=O)O)cc1` [Example 3F] gave an IC50 of 123 nM. `CCCCc1ncc(C=C2C(=O)Nc3c(OC)cccc32)n1Cc1ccc(C(=O)O)cc1` [Example 3B, 4-[[2-Butyl-5-[(1,2-dihydro-7-methoxy-2-oxo-3H-indol-3-ylidene)methyl]-1H-imidazol-1-yl]methyl]benzoic acid] gave an IC50 of 120 nM. In the case of `CCCCc1ncc(C=C2C(=O)N(CC#N)c3ccccc32)n1Cc1ccc(C(=O)OC)cc1` [Example 4H, Benzoic acid, 4-[[2-butyl-5-[[1-(cyanomethyl)-2,3-dihydro-2-oxo-1H-indol-3-ylidene]methyl]-1H-imidazol-1-yl]methyl]-, methyl ester, (E)], the IC50 is reported as 226 nM. Molecule `CCCCc1ncc(/C=C2/C(=O)N(CCC(=O)O)c3ccccc32)n1Cc1ccc(C(=O)O)cc1` [Example 3G, 1H-Indole-1-propanoic acid, 3-[[2-butyl-1-[(4-carboxyphenyl)methyl]-1H-imidazol-5-yl]methylene]-2,3-dihydro-2-oxo -, (E)] has an IC50 of 20 nM. `CCCCN1C(=O)/C(=C/c2c(-n3cccc3)nc(CCC)n2Cc2ccc(C(=O)OC)cc2)c2ccccc21` [Example 4, Benzoic acid, 4-[[5-[(1-butyl-2,3-dihydro-2-oxo-1H-indol-3-ylidene)methyl]-2=propyl-4=(1H-pyrrol-1-yl)-1H-imidazol-1-yl]methyl]-, methyl ester, (E)] was tested, and the IC50 was 590 nM.
